Biological target: Human DGAT2 (Homo sapiens (Human), UniProt Q96PD7)
Assay: DGAT2 Enzymatic Activity Assay (triolein formation, LC/MS/MS)
Type: biochemical
Settings: hDGAT2 Sf-9 membrane prep; 25 μM diolein, 10 μM oleoyl-CoA; room temperature
How it was run: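 Triolein product, measured by LC/MS/MS as a ratio to internal standard, gave % inhibition and 4-parameter IC50. Reaction: 25 μM diolein, 10 μM oleoyl-CoA, 10 ng/μL hDGAT2 Sf-9 membrane, 100 mM Tris.Cl pH 7.0, 20 mM MgCl2, 5% ethanol, room temperature.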

Human DGAT2, sequence (Q96PD7 whole entry): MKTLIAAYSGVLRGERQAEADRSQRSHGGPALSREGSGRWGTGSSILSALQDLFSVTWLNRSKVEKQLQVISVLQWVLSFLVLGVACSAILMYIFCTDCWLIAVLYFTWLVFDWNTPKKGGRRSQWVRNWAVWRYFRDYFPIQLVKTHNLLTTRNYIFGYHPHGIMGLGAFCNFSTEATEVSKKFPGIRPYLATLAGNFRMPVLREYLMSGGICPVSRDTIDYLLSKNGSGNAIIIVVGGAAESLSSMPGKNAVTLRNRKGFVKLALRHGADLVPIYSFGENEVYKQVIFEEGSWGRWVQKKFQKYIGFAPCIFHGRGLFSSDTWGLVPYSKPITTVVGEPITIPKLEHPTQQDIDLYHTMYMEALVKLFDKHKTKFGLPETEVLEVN

Structure (SMILES)	IC50 [nM]
O=C(NC1CCS(=O)(=O)C1)c1ccc2c(-c3cccc(Cl)c3Cl)nn(-c3ccc(F)cc3)c2c1 (single isomer, unassigned) [Example 130-A, 3-(2,3-dichlorophenyl)-N-(1,1-dioxidotetrahydro-thiophen-3-yl)-1-(4-fluorophenyl)-1H-indazole-6-carboxamide]	3.6
O=C(NCc1cnoc1)c1ccc2c(-c3ccccc3Cl)nn(-c3ccc(F)cc3)c2c1 [Example 37, 3-(2-chlorophenyl)-1-(4-fluorophenyl)-N-(isoxazol-4-ylmethyl)-1H-indazole-6-carboxamide]	221
C[C@@H](NC(=O)c1ccc2c(-c3ccccc3Cl)nn(-c3ccc(F)cc3)c2c1)[C@H](O)c1ccccc1 [Example 107, 3-(2-chlorophenyl)-1-(4-fluorophenyl)-N-[(1R,2R)-2-hydroxy-1-methyl-2-phenylethyl]-1H-indazole-6-carboxamide]	305
C[C@@H](NC(=O)c1ccc2c(-c3ccccc3Cl)nn(-c3ccc(F)cc3)c2c1)c1ccc(C(F)(F)F)[n+]([O-])c1 [Example 3, 3-(2-chlorophenyl)-1-(4-fluorophenyl)-N-{(1R)-1-[1-oxido-6-(trifluoromethyl)pyridin-3-yl]ethyl}-1H-indazole-6-carboxamide]	155
CC1(NC(=O)c2ccc3c(-c4cccc(C(C)(C)O)c4)nn(-c4ccc(F)cc4)c3c2)CCS(=O)(=O)C1 (racemic) [Example 150, 1-(4-fluorophenyl)-3-[3-(1-hydroxy-1-methylethyl)phenyl]-N-(3-methyl-1,1-dioxidotetrahydrothiophen-3-yl)-1H-indazole-6-carboxamide]	311
O=C1CC(NC(=O)c2ccc3c(-c4ccccc4Cl)nn(-c4ccc(F)cc4)c3c2)C1 [Example 104, 3-(2-chlorophenyl)-1-(4-fluorophenyl)-N-(3-oxocyclobutyl)-1H-indazole-6-carboxamide]	180
CC1(NC(=O)c2ccc3c(-c4cccc(OC(F)F)c4)nn(-c4ccc(F)cc4)c3c2)CCS(=O)(=O)C1 (single isomer, unassigned) [Example 143-A, 3-[3-(difluoromethoxy)phenyl]-1-(4-fluorophenyl)-N-(3-methyl-1,1-dioxidotetrahydrothiophen-3-yl)-1H-indazole-6-carboxamide]	1.6
CC(C)(NC(=O)c1ccc2c(-c3ccccc3Cl)nn(-c3ccc(F)cc3)c2c1)c1ccc(C(F)(F)F)nc1 [Example 28, 3-(2-chlorophenyl)-1-(4-fluorophenyl)-N-{1-methyl-1-[6-(trifluoromethyl)pyridin-3-yl]ethyl}-1H-indazole-6-carboxamide]	93
O=C(NC1CCS(=O)(=O)C1)c1ccc2c(-c3ccccc3Cl)nn(Cc3ccc(Cl)cc3)c2c1 (stereo not shown) [Example 168, 1-(4-chlorobenzyl)-3-(2-chlorophenyl)-N-(1,1-dioxidotetrahydrothiophen-3-yl)-1H-indazole-6-carboxamide]	455
O=C(NCc1ccc(C(F)(F)F)nc1)c1ccc2c(-c3ccccc3Cl)nn(-c3ccc(F)cc3)c2c1 [Example 18, 3-(2-chlorophenyl)-1-(4-fluorophenyl)-N-{[6-(trifluoromethyl)pyridin-3-yl]methyl}-1H-indazole-6-carboxamide]	64
O=C(NC1CCS(=O)(=O)C1)c1ccc2c(-c3ccccc3Cl)nn(-c3ccccn3)c2c1 (single isomer, unassigned) [Example 175-A, 3-(2-chlorophenyl)-N-(1,1-dioxidotetrahydrothiophen-3-yl)-1-pyridin-2-yl-1H-indazole-6-carboxamide]	338
O=C(NC1CCCC1)c1ccc2c(-c3ccccc3Cl)nn(-c3ccc(F)cc3)c2c1 [Example 84, 3-(2-chlorophenyl)-N-cyclopentyl-1-(4-fluorophenyl)-1H-indazole-6-carboxamide]	156
CC1(NC(=O)c2ccc3c(-c4ccccc4Cl)nn(-c4ccc(F)cn4)c3c2)CCS(=O)(=O)C1 (single isomer, unassigned) [Example 172-A]	39
CC1(NC(=O)c2ccc3c(-c4cncc(F)c4)nn(-c4ccc(F)cc4)c3c2)CCS(=O)(=O)C1 (single isomer, unassigned) [Example 153-A, 1-(4-fluorophenyl)-3-(5-fluoropyridin-3-yl)-N-(3-methyl-1,1-dioxidotetrahydrothiophen-3-yl)-1H-indazole-6-carboxamide]	90
CC(O)CC(C)(C)NC(=O)c1ccc2c(-c3ccccc3Cl)nn(-c3ccc(F)cc3)c2c1 (racemic) [Example 113, 3-(2-chlorophenyl)-1-(4-fluorophenyl)-N-(3-hydroxy-1,1-dimethylbutyl)-1H-indazole-6-carboxamide]	41
O=C(NC1(CO)CCSC1)c1ccc2c(-c3ccccc3Cl)nn(-c3ccc(F)cc3)c2c1 (racemic) [Example 98, 3-(2-chlorophenyl)-1-(4-fluorophenyl)-N-[3-(hydroxymethyl)tetrahydrothiophen-3-yl]-1H-indazole-6-carboxamide]	45
CN(C)S(=O)(=O)CCNC(=O)c1ccc2c(-c3ccccc3Cl)nn(-c3ccc(F)cc3)c2c1 [Example 25, 3-(2-chlorophenyl)-N-[2-(dimethylsulfamoyl)ethyl]-1-(4-fluorophenyl)-1H-indazole-6-carboxamide]	558
O=C(Nc1ccc(C(F)(F)F)nc1)c1ccc2c(-c3ccccc3Cl)nn(-c3ccc(F)cc3)c2c1 [Example 10, 3-(2-chlorophenyl)-1-(4-fluorophenyl)-N-[6-(trifluoromethyl)pyridin-3-yl]-1H-indazole-6-carboxamide]	608

Next, values leading:

IC50 [nM]	Structure (SMILES)
532	O=C(NC(CCN1CCOCC1)c1ccccc1)c1ccc2c(-c3ccccc3Cl)nn(-c3ccc(F)cc3)c2c1 (racemic) [Example 109, 3-(2-chlorophenyl)-1-(4-fluorophenyl)-N-(3-morpholin-4-yl-1-phenylpropyl)-1H-indazole-6-carboxamide]
403	O=C(c1ccc2c(-c3ccccc3Cl)nn(-c3ccc(F)cc3)c2c1)N1CC2CC1CS(=O)(=O)C2 (racemic) [Example 23, 3-(2-chlorophenyl)-6-[(3,3-dioxido-3-thia-6-azabicyclo[3.2.1]oct-6-yl)carbonyl]-1-(4-fluorophenyl)-1H-indazole]
73	O=C(NC1(CO)CC1)c1ccc2c(-c3ccccc3Cl)nn(-c3ccc(F)cc3)c2c1 [Example 61, 3-(2-chlorophenyl)-1-(4-fluorophenyl)-N-[1-(hydroxymethyl)cyclopropyl]-1H-indazole-6-carboxamide]
125	COC(=O)C1(NC(=O)c2ccc3c(-c4ccccc4Cl)nn(-c4ccc(F)cc4)c3c2)CC[S+]([O-])C1 (racemic) [Example 89, methyl 3-({[3-(2-chlorophenyl)-1-(4-fluorophenyl)-1H-indazol-6-yl]carbonyl}amino)tetra-hydrothiophene-3-carboxylate 1-oxide]
96	O=C(NCCn1cnnc1)c1ccc2c(-c3ccccc3Cl)nn(-c3ccc(F)cc3)c2c1 [Example 39, 3-(2-chlorophenyl)-1-(4-fluorophenyl)-N-[2-(4H-1,2,4-triazol-4-yl)ethyl]-1H-indazole-6-carboxamide]
65	O=C(NC1CCS(=O)(=O)C1)c1ccc2c(-c3cccnc3Cl)nn(-c3ccc(F)cc3)c2c1 (single isomer, unassigned) [Example 135-A, 3-(2-chloropyridin-3-yl)-N-(1,1-dioxidotetrahydrothiophen-3-yl)-1-(4-fluorophenyl)-1H-indazole-6-carboxamide]
48	C[C@H](NC(=O)c1ccc2c(-c3ccccc3Cl)nn(-c3ccc(F)cc3)c2c1)c1ccc(C(F)(F)F)nc1 [Example 13, 3-(2-chlorophenyl)-1-(4-fluorophenyl)-N-{(1S)-1-[6-(trifluoromethyl)pyridin-3-yl]ethyl}-1H-indazole-6-carboxamide]
4.5	CC1(NC(=O)c2ccc3c(-c4ccc(Cl)nc4F)nn(-c4ccc(F)cc4)c3c2)CCS(=O)(=O)C1 (single isomer, unassigned) [Example 152-A, 3-(6-chloro-2-fluoropyridin-3-yl)-1-(4-fluorophenyl)-N-(3-methyl-1,1-dioxidotetrahydrothiophen-3-yl)-1H-indazole-6-carboxamide]
889	CC(NC(=O)c1ccc2c(-c3ccccc3Cl)nn(-c3ccc(F)cc3)c2c1)c1nncn1C (racemic) [Example 36, 3-(2-chlorophenyl)-1-(4-fluorophenyl)-N-[1-(4-methyl-4H-1,2,4-triazol-3-yl)ethyl]-1H-indazole-6-carboxamide]
65	O=C(NCC1CCS(=O)(=O)C1)c1ccc2c(-c3ccccc3Cl)nn(-c3ccc(F)cc3)c2c1 (racemic) [Example 29, 3-(2-chlorophenyl)-N-[(1,1-dioxidotetrahydrothiophen-3-yl)methyl]-1-(4-fluorophenyl)-1H-indazole-6-carboxamide]
357	O=C(NC1(CO)CCc2ccccc21)c1ccc2c(-c3ccccc3Cl)nn(-c3ccc(F)cc3)c2c1 (racemic) [Example 75, 3-(2-chlorophenyl)-1-(4-fluorophenyl)-N-[1-(hydroxymethyl)-2,3-dihydro-1H-inden-1-yl]-1H-indazole-6-carboxamide]
78	CC(NC(=O)c1ccc2c(-c3ccccc3Cl)nn(-c3ccc(F)cc3)c2c1)c1c[nH]cn1 (racemic) [Example 14, 3-(2-chlorophenyl)-1-(4-fluorophenyl)-N-[1-(1H-imidazol-4-yl)ethyl]-1H-indazole-6-carboxamide]
430	COc1ncc(Cl)cc1-c1nn(-c2ccc(F)cc2)c2cc(C(=O)NC3(C)CCS(=O)(=O)C3)ccc12 (single isomer, unassigned) [Example 142-A, 3-(5-chloro-2-methoxypyridin-3-yl)-1-(4-fluorophenyl)-N-(3-methyl-1,1-dioxidotetrahydrothiophen-3-yl)-1H-indazole-6-carboxamide]

Reference: patent US11104690B2, “Indazole derivatives useful as inhibitors of diacylglyceride O-acyltransferase 2” (Merck Sharp & Dohme Corp., priority 2016, dated 2021)
